{"source": "patent US20120295838A1", "about": "“Selective poly-substituted glycine antibiotics and related compositions” (priority 2008, published 2012)", "key": {"E. coli ATCC 35218": {"system": "E. coli ATCC 35218", "type": "cell-based", "settings": "Table 8; CAMHB"}, "human erythrocytes": {"system": "human erythrocytes", "experiment": "Hemolysis assay", "type": "cell-based", "in_short": "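Peptoid dilution series (1:2 in PBS) combined with equal volume of 20 vol % human red cells from heparinised blood, 37 °C for 1 h. Released hemoglobin measured as supernatant absorbance at 350 nm post-centrifugation, scaled between PBS-only wells and 0.2 vol % Triton X-100 total lysis.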"}, "MTS assay, NIH 3T3 cells": {"experiment": "MTS assay, NIH 3T3 cells", "type": "cell-based, mouse", "settings": "NIH 3T3 fibroblast cells; Table 6; 50% inhibitory dose against NIH 3T3 mouse fibroblast cells; read-out: ID50", "in_short": "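NIH/3T3 cells seeded at 5,000 per well, grown a day in DMEM with 10% FBS, then washed and exposed to serially diluted peptoid in HBSS together with MTS reagent. Absorbance at 490 nm read after 3 hours at 37 °C as a measure of metabolic activity; mean of six replicates.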"}, "[1]": {"system": "Staphyloccus aureus (ATCC #25923)", "experiment": "Murine intraperitoneal infection model", "type": "in vivo", "settings": "mouse, S. aureus I.P., 4 mg/kg peptoid I.P.; eleven mice for 1-Nhis6,12", "description": "Using a murine peritoneal injection mouse model, the ability of peptoids to treat infection was evaluated in vivo. The results from three separate studies of peptoid 1 and two of peptoid 1-Nhis6,12 against saline treated controls are shown in FIG. 7. The horizontal line represents the geometric mean of each population.\nMurine intraperitoneal infection model. Bacteria was prepared by inoculating 5 mL of MHB with a single colony of Staphyloccus aureus (ATCC #25923) from a freshly streaked plate and grown overnight at 37 C. The following morning, the bacteria was subcultured by diluting 1/3 in MHB and grown for approximately 1 .5 hours. The bacteria were then diluted 10-fold in a 5% mucin in PBS solution and thoroughly mixed. A sample was reserved to later determine the amount of bacteria the mice received.\nMice were weighed, marked, and injected I.P. with 200 uL of S. aureus inoculum. Four hours post infection, mice were treated I.P. with 4 mg/kg peptoid (˜100 ug per mouse). The infection is allowed to proceed overnight. Mice were euthanized by CO2 asphyxiation after 24 hours, and the peritoneal cavity was exposed and lavaged with 5 mL PBS. The lavage was mixed and reserved on ice until plating. The lavages were diluted to 10^−5 (in1/10 increments) in PBS, and all dilutions were plated onto MH agar, in duplicate. 50 uL of lavage was spot plated, allowed to dry, and incubated overnight at 37° C. Colonies were counted the following day, and the CFU/ml of each sample was calculated. Plates that had too many colonies to count were assigned an arbitrary number of 1000 colonies."}, "[2]": {"system": "both strains of E. faecalis", "type": "cell-based", "settings": "text summary of Table 7A", "description": "The activities of ampetoids tested against BSL2 Gram-positive strains, however, compared very favorably to those of pexiganan.\nBroad-spectrum antibacterial assays. MICs of compounds were determined by microdilution procedure in Mueller-Hinton broth (MHB) in accordance with CLSI M7-A6 protocols in a manner similar to that described for the screen antibacterial assays. Inoculated microtiter plates were incubated at 35° C. for 24 hours prior to the result being recorded. Four ATCC strains that were used as standards are recommended by CLSI: Pseudomonas aeruginosa ATCC 27853, Escherichia coli ATCC 25922, Staphylococcus aureus ATCC 29213 and Enterococcus faecalis ATCC 29212. Other strains from the ATCC collection include Proteus vulgaris ATCC 49132, Proteus mirabilis ATCC 35659, Klebsiella pneumoniae ATCC 33495, Enterobacter aerogenes ATCC 35029 and Serratia marcescens ATCC 13880. S. aureus NRS100 (COL) is a well characterized methicillian-resistant S. aureus (MRSA) strain. The strains S. aureus VAN1 and S. aureus VAN2, vancomycin-resistant MRSA strains that were isolated in Michigan and Pennsylvania, were the first vancomycin-resistant strains clinically isolated. S. aureus NRS 119 and S. aureus NRS 120 are linezolid-resistant isolates from the Network on Antimicrobial Resistance in S. aureus (NARSA) collection. […]"}}, "note": "Square brackets hold non-standard residues; d marks the D form. Peptide text beside a SMILES is read from it. Nspe = C[C@H](NCC(=O)O)c1ccccc1; Nlys = NCCCCNCC(=O)O"}
{"compound": "C[C@@H](c1ccccc1)N(CC(N)=O)C(=O)CN(C(=O)CN(CCCCN)C(=O)CN(C(=O)CN(C(=O)CN(CCCCN)C(=O)CN(C(=O)CN(C(=O)CN(CCCCN)C(=O)CN(C(=O)CN(C(=O)CNCCCCN)[C@@H](C)c1ccccc1)[C@@H](C)c1ccccc1)[C@@H](C)c1ccccc1)[C@@H](C)c1ccccc1)[C@@H](C)c1ccccc1)[C@@H](C)c1ccccc1)[C@@H](C)c1ccccc1", "note": "[compound 1, H-(NLys-Nspe-Nspe)4-NH2] (H-[Nlys][Nspe][Nspe][Nlys][Nspe][Nspe][Nlys][Nspe][Nspe][Nlys][Nspe][Nspe]-NH2)", "values": [{"measurement": "MIC for E. coli ATCC 35218", "setting": "E. coli ATCC 35218", "value": 6.3, "unit": "µM"}, {"measurement": "HD10", "setting": "human erythrocytes; Table 6, 10% hemolytic dose", "value": 21, "unit": "µM"}, {"measurement": "HD10", "setting": "human erythrocytes; Table 8", "value": 14, "unit": "µM"}, {"measurement": "HD50", "setting": "human erythrocytes; Table 8", "value": 63, "unit": "µM"}, {"measurement": "CC50 at 3 h", "setting": "MTS assay, NIH 3T3 cells", "value": 5.1, "unit": "µM"}, {"measurement": "mice that died prematurely during the exposure period", "setting": "[1]", "value": "no mice"}, {"measurement": "MIC, range over both strains of E. faecalis", "setting": "[2]", "value": "4 to 8", "unit": "µg/mL"}]}
